Test results from US20090170945A1, “[…]” (priority 2007, published 2009).
Where a name gives a salt, the structure may show the parent alone.

Tests used:
[1] = Hygroscopicity of solid state salts under storage at ambient and humid conditions; assay type: physicochemical; conditions: for hygroscopicity: storage at ambient and humid (40 C, 75% RH) conditions
Description: Hygroscopicity of solid state pregabalin salts that passed the salt formation criterion were tested under storage at ambient and humid (40 C, 75% RH) conditions.

[2] = Formation of impurities during salt formation (HPLC) and stability studies; conditions: for stability / impurities during salt formation: HPLC after the salt formation
Description: Formation of impurities during the salt forming process was tested by analyzing the samples by HPLC after the salt formation. Salts were also subjected to stability studies in the solid state; particularly, they were subjected to storage at 40 C and 75% RH in the open dish.

[3] = per WO 96/40617; cited from earlier work
[4] = Thermogravimetric measurements
[5] = Solubility in organic solvents; assay type: physicochemical
From the text: Pregabalin is obtainable by known methods, such as those described in EPB 641 330. […].
Suitable solvents include aliphatic cyclic ethers (e.g. dioxane), esters, and ketones (each of the ethers, esters, and ketones having 3 to 12 carbon atoms), and mixtures thereof as well as mixtures with water. The solubility may be enhanced by heating the reaction mixture. The presence of water enhances the solubility of both reagents (i.e., the pregabalin and the corresponding acid) substantially. Due to the high water solubility of the salt, however, the amount of water in the solvent should be minimized prior to the isolation of the salt (e.g. by evaporation of the solvent prior to the isolation), and preferably water is excluded from the solvent entirely. On the other hand, it was shown that the pregabalin salts of the invention are only slightly soluble in aliphatic ethers (such as diisopropyl ether and methyl tert. butyl ether) so that aliphatic ethers may be used as solvents in the salt forming reaction or as antisolvents for the isolation. Furthermore, alcohols as solvents are preferably avoided, as they may be esterified in the presence of the sulfonic acid to yield corresponding esters as byproducts. Thus alcoholic solvents and other non-inert solvents (e.g. solvents that will react under the salt forming conditions) are generally avoided.

[6] = cited from earlier work

Compound: CC(C)C[C@H](CN)CC(=O)O [pregabalin hydrochloride]
- hygroscopicity [1]: liquefied

Compound: CC(C)C[C@H](CN)CC(=O)O.O=S(=O)(O)CCS(=O)(=O)O [ethane-1,2-disulfonic acid salt]
- hygroscopicity [1]: very hygroscopic
- water uptake on storage in air ([1]; storage in air (R.T.) for 36 days): formation of a dihydrate

Compound: maleate
- stability / impurities during salt formation [2]: formed with by-products

Compound: CC(C)C[C@H](CN)CC(=O)O.O=S(=O)(O)c1cccc2c(S(=O)(=O)O)cccc12 [napadisylate, pregabalin 1,5-naphthalene disulfonate]
- solid state stability during prolonged storage ([2]; 40 C and 75% RH, open dish): unstable
- stability / impurities during salt formation [2]: stable

Compound: pregabalin mesylate
- stability / impurities during salt formation [2]: stable

Compound: fumarate
- stability / impurities during salt formation [2]: formed with by-products

Compound: CC(C)C[C@H](CN)CC(=O)O.O=C(O)[C@@H](O)c1ccccc1 [pregabalin mandelate, Pregabalin (S)-mandelate]
- stability in aqueous solutions ([2]; aqueous solution, lactam impurity): unstable
- hydrolysis in water to free pregabalin [3]: easily hydrolyzes in water

Compound: Pregabalin p-toluene Sulfonate [pregabalin tosylate]
- stability in solid state and in solution (overall statement) [2]: stable in both the solid state and in solution
- stability / impurities during salt formation [2]: stable
- thermal stability (thermogravimetry), stable up to [4]: 160-170 °C

Compound: Pregabalin Benzene Sulfonate [pregabalin besylate]
- hygroscopicity [1]: non-hygroscopic
- stability in solid state and in solution (overall statement) [2]: stable in both the solid state and in solution
- stability / impurities during salt formation [2]: stable
- thermal stability (thermogravimetry), stable up to [4]: 160-170 °C

Compound: CC(C)C[C@H](CN)CC(=O)O [Pregabalin, S-(+)-4-amino-3-(2-methylpropyl)butanoic acid]
- solubility in ethanol [5]: poorly soluble
- pKa (acidic carboxy group) ([6]; first of the two printed pKa values): 4.2
- pKa (basic amino group) ([6]; second of the two printed pKa values): 10.6
